We go through three compounds from patent US10695331B2, “Veterinary composition comprising imidacloprid, moxidectin and praziquantel for cutaneous topical application (spot on), for the treatment and prevention of ecto and endoparasitoses affecting dogs” (LABYES USA, LLC, priority 2016, dated 2020).

The conditions of series [1]: pigs; cited from earlier work.
The conditions of series [2]: dogs; cited from earlier work.
The conditions of series [3]: sheep; cited from earlier work.
The conditions of series [4]: cows; cited from earlier work.
For series [5] the following is noted: in vivo; cited from earlier work.
For series [6] the following is noted: oral, 0.5 and 2.0 mg/kg/12 hours, 36 days; increase of four times the original dose; cited from earlier work.
The conditions of series [7]: percutaneous, dogs (Sarasola, 2002); cited from earlier work.
The conditions of series [8]: percutaneous, cats (Sarasola, 2002); cited from earlier work.
A short description of another series: in vivo. The following applies: dog. The method, then: In a period not longer than 2 hours, all of the samples were sent to the Laboratory, where they were centrifuged, and their plasma separated and frozen to −20° C. until the samples were quantified.
For series [9] the following is noted: subcutaneous administration, 5 mg/kg, Xie et al. 2011; cited from earlier work.
For series [10] the following is noted: cited from earlier work.
Setting [11] is: Plasma concentrations of Praziquantel.

Like-named read-outs stand apart in the source and are kept apart here.

Turning to `CO/N=C1\C[C@]2(C[C@@H]3C[C@@H](C/C=C(\C)C[C@@H](C)/C=C/C=C4\CO[C@@H]5[C@H](O)C(C)=C[C@@H](C(=O)O3)[C@]45O)O2)O[C@H](/C(C)=C/C(C)C)[C@H]1C` [Moxidectin], the half-life of elimination was 12 h in series [1], 43.2 h in series [2], 64.8 h in series [3] and 67.2 h in [4]. In addition, the “time of plasma spikes” value in series [5] was 3 to 5 h. Further, the “average increase of the concentrations in plasma” value in series [6] is recorded as “more than 8 times”.
By bioavailability is commonly meant the share of a dose that reaches the circulation, judged against a reference dose that is usually intravenous. Consider `CO[C@H]1C[C@H](O[C@@H]2/C(C)=C/C[C@@H]3C[C@@H](C[C@]4(CC[C@H](C)[C@@H](C5CCCCC5)O4)O3)OC(=O)[C@@H]3C=C(C)/C(=N/O)[C@H]4OC/C(=C\C=C\[C@@H]2C)[C@]43O)O[C@@H](C)[C@@H]1O` [Selamectin], for which the bioavailability in series [7] is listed as 4%; in series [8], 74%.
Usually Tmax stands for the time from dosing to the highest level. Broadly, the AUC is concentration integrated over time. High values mean more exposure, low ones less exposure. By Cmax is commonly meant the maximum level reached in the sampled fluid or tissue. As to `O=C(C1CCCCC1)N1CC(=O)N2CCc3ccccc3C2C1` (stereo not shown) [Praziquantel], the “Plasma concentrations of Praziquantel” value in “in vivo” (0 h) amounted to 0.0 ng/mL. Also, in the series “in vivo” (14.5 mg/kg), the “time up to which plasma concentrations are detectable” value is on record as “up to 48 hours”. For the same compound, in “in vivo” (setting [11]), the concentration at 0 h came to 0 ng/mL and the concentration at 6 h turned out to be 63.7 ng/mL. Moreover, in “in vivo” (topical or ocular, 14.5 mg/kg), the “AUC/inf, Max” value was determined as 1321; the “AUC/inf, Min” value is 626.6; the “CMAX, Min” value worked out at 38.6 ng/mL; the “TMAX, Min” value was determined as 4 h. Moreover, the time to peak (Tmax) in “in vivo” (topical or ocular, 14.5 mg/kg) was 4 h. For the same compound, the exposure (AUC) in the series “in vivo” (topical or ocular, 14.5 mg/kg, AUC/inf, Median) is 997 ng·h/mL. In “in vivo” (topical or ocular, 14.5 mg/kg, Max), the Cmax came to 77.6 ng/mL. The highest concentration (Cmax) in the series “in vivo” (topical or ocular, 14.5 mg/kg, Median) was 53.9 ng/mL. Also, the time to peak (Tmax) in “in vivo” (topical or ocular, 14.5 mg/kg, TMAX) came out at 6 h. Moreover, the Tmax in “in vivo” (topical or ocular, 14.5 mg/kg, TMAX, Median) came out at 5 h. In addition, the Tmax in “in vivo” (topical or ocular, 14.5 mg/kg, Tmax range) lay in the range of 4 to 6 h. In series [9], the Cmax is 47.82 ng/mL, the Tmax was 1.45 h and the “plasma values after 48 hours” value is “below 10 ng/ml”. In series [10] (oral dose), the “part of an oral dose excreted with no changes” value is reported as “less than 1%”. The “concentration in tissues and plasma” value in [10] (up to) is listed as 14-20%.
